According to patent US10730923B2 (Indiana University Research and Technology Corporation, priority 2011, dated 2020):
*1 amine or outer side, *2 acyl side, *3 side chain or, on linkers, in order; H or OH if unused. Where a SMILES comes first, the peptide text is derived from it. Where no end group is shown, it is not given here. Side-chain parts run from the residue outwards. [ ]: non-standard residue; d: D form. The star is where a group is joined. γGlu = O=C(O)[C@H](CCC(=O)[*:2])N[*:1]; Palmitoyl = CCCCCCCCCCCCCCCC(=O)*; Aib = CC(C)(N)C(=O)O

Columns and labels:
Type in all cases: in vivo
[1] = diabetic rhesus monkeys, 10 days treatment: body weight, fasting blood glucose, Meal Tolerance Test; conditions: 1 μg/kg s.c. for 10 days
Experimental: The in vivo effects of a peptide of the invention were tested in diabetic rhesus monkeys (n=7) that were aged 16-26 years and having an average body weight of […]. Diabetic rhesus monkeys (n=7) that were aged 16-26 years with an average body weight of […] were administered a vehicle control, Liraglutide at a dose of 10 μg/kg s.c. or a peptide of SEQ ID NO: 17 at a dose of 1 μg/kg s.c. for 10 days. At the end of each treatment, fasting blood glucose (FBG) was measured first followed by a Meal Tolerance Test (MTT) to assess glucose tolerance. […] Data are expressed in FIG. 4 as mean±SEM. *P<0.05 versus vehicle.

[2] = obese rhesus monkeys, daily dosing for 21 days: body weight and food intake
Experimental: The in vivo effects of a peptide of the invention were confirmed in obese rhesus monkeys by administering daily for 21 days a vehicle control, a commercially available product (Liraglutide), a peptide of SEQ ID NO: 20, or a peptide of SEQ ID NO: 17. […] Body weight and food intake were measured.

[3] = diet-induced obese (DIO) mice, daily dosing for nine days: body weight and ambient glucose
Experimental: Mice were administered a vehicle control or a dose of a peptide daily for nine days. The peptides tested in this study included a peptide of SEQ ID NO: 12, a peptide of SEQ ID NO: 17, a peptide of SEQ ID NO: 18, and a peptide of SEQ ID NO: 19. Doses of each peptide were varied—each of the peptides of SEQ ID NO: 12, 17, and 19 was administered at a dose of either 3 nmol/kg or 9 nmol/kg, while the peptide of SEQ ID NO: 18 was administered at a dose of 1 nmol/kg, 3 nmol/kg, or 9 nmol/kg. Data are expressed as mean±SEM.
In addition to cumulative body weight change, ambient glucose levels of the DIO mice were measured.

## CCCCCCCCCCCCCCCC(=O)N[C@@H](CCC(=O)N[C@@H](CCC(=O)NCCCC[C@H](NC(=O)[C@H](CC(=O)O)NC(=O)[C@H](CO)NC(=O)[C@@H](NC(=O)[C@H](Cc1ccccc1)NC(=O)[C@@H](NC(=O)CNC(=O)[C@H](CCC(N)=O)NC(=O)C(C)(C)NC(=O)[C@@H](N)Cc1c[nH]cn1)[C@@H](C)O)[C@@H](C)O)C(=O)N[C@@H](CO)C(=O)N[C@@H](CCCCN)C(=O)N[C@@H](Cc1ccc(O)cc1)C(=O)N[C@@H](CC(C)C)C(=O)N[C@@H](CC(=O)O)C(=O)NC(C)(C)C(=O)N[C@@H](CCCNC(=N)N)C(=O)N[C@@H](C)C(=O)N[C@@H](C)C(=O)N[C@@H](CCC(N)=O)C(=O)N[C@@H](CC(=O)O)C(=O)N[C@@H](Cc1ccccc1)C(=O)N[C@H](C(=O)N[C@@H](CCC(N)=O)C(=O)N[C@@H](Cc1c[nH]c2ccccc12)C(=O)N[C@@H](CC(C)C)C(=O)N[C@@H](CCSC)C(=O)N[C@@H](CC(N)=O)C(=O)N[C@H](C(=O)N[C@@H](CCCCN)C(=O)N[C@@H](CCC(N)=O)C(=O)O)[C@@H](C)O)C(C)C)C(=O)O)C(=O)O [SEQ ID NO: 17] (H-H[Aib]QGTFTSDK([γGlu-γGlu-Palmitoyl])SKYLD[Aib]RAAQDFVQWLMNTKQ-OH; N-terminus assumed)
[1]
  glucose tolerance during Meal Tolerance Test (MTT) compared to vehicle: improved glucose tolerance
[2]; Day 28
  body weight following a one week wash-out: regained much of the weight that was lost
[2]; daily s.c. for 21 days, Liraglutide 20 μg/kg, SEQ ID NO: 17 3 μg/kg
  food intake, % change vs. baseline: −25.7%±3.2
[3]; 3 nmol/kg, Day 7
  reduction in glucose levels compared to vehicle control mice: ~28%
[3]; 3 nmol/kg, Day 9
  decrease in glucose levels compared to vehicle control mice: ~19%
[3]; 9 nmol/kg, Day 4
  decrease in glucose levels compared to vehicle control mice: ~48%
[3]; 9 nmol/kg, Day 7
  decrease in glucose levels compared to vehicle control mice: ~48%
[3]; 9 nmol/kg, Day 9
  decrease in glucose levels compared to vehicle control mice: ~45%

## SEQ ID NO: 19: peptide of SEQ ID NO: 19 of the sequence listing, tested in DIO mice; sequence not printed in the text (H[dS]QGTFTSDK([γGlu-Palmitoyl])SKYLDERAAQDFVQWLLDT-NH2; N-terminus assumed; SMILES CCCCCCCCCCCCCCCC(=O)N[C@@H](CCC(=O)NCCCC[C@H](NC(=O)[C@H](CC(=O)O)NC(=O)[C@H](CO)NC(=O)[C@@H](NC(=O)[C@H](Cc1ccccc1)NC(=O)[C@@H](NC(=O)CNC(=O)[C@H](CCC(N)=O)NC(=O)[C@@H](CO)NC(=O)[C@@H](N)Cc1c[nH]cn1)[C@@H](C)O)[C@@H](C)O)C(=O)N[C@@H](CO)C(=O)N[C@@H](CCCCN)C(=O)N[C@@H](Cc1ccc(O)cc1)C(=O)N[C@@H](CC(C)C)C(=O)N[C@@H](CC(=O)O)C(=O)N[C@@H](CCC(=O)O)C(=O)N[C@@H](CCCNC(=N)N)C(=O)N[C@@H](C)C(=O)N[C@@H](C)C(=O)N[C@@H](CCC(N)=O)C(=O)N[C@@H](CC(=O)O)C(=O)N[C@@H](Cc1ccccc1)C(=O)N[C@H](C(=O)N[C@@H](CCC(N)=O)C(=O)N[C@@H](Cc1c[nH]c2ccccc12)C(=O)N[C@@H](CC(C)C)C(=O)N[C@@H](CC(C)C)C(=O)N[C@@H](CC(=O)O)C(=O)N[C@H](C(N)=O)[C@@H](C)O)C(C)C)C(=O)O)
[3]; 9 nmol/kg, Day 4
  decrease in glucose levels compared to vehicle control mice: ~40%
[3]; 9 nmol/kg, Day 7
  decrease in glucose levels compared to vehicle control mice: ~39%
[3]; 9 nmol/kg, Day 9
  decrease in glucose levels compared to vehicle control mice: ~26%

## SEQ ID NO: 18: peptide of SEQ ID NO: 18 of the sequence listing, tested in DIO mice; sequence not printed in the text (HXQGTFTSDKSKYLDERAAQDFVQWLMDT; (2)..(2) Xaa is AIB; (10)..(10) Acylated with a C16 fatty acyl group via gamma-Glu-gamma-Glu spacer; (29)..(29) C-terminal amidation)
[3]; 3 nmol/kg or 9 nmol/kg dose, by Day 4
  decrease in ambient glucose vs. vehicle: −29%
